In paper PMC6812366 (ACS Omega, 2019):

What was measured:
[1] = target: T1, hDcpS (human decapping scavenger enzyme) (Homo sapiens, UniProt Q96C86); assay: intrinsic Trp fluorescence quenching titration, association constant Kas; format: binding
[2] = target: T2, CeDcpS (C. elegans decapping scavenger enzyme) (Caenorhabditis elegans, UniProt G5EFS4); assay: as above; format: binding
T2 sequence (G5EFS4 1-311): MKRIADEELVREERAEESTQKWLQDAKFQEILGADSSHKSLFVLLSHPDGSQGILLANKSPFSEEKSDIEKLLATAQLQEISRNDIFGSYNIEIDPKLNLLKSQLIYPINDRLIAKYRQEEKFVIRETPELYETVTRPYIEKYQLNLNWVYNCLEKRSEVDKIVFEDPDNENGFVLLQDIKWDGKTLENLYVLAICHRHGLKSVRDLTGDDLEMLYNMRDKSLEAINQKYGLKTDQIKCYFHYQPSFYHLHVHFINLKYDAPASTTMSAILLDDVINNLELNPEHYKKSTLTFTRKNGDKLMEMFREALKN

[3] = target: T1, hDcpS (human decapping scavenger enzyme); assay: HPLC decapping assay with recombinant enzyme, hydrolysis rate V0 at […] substrate; format: biochemical
[4] = target: T2, CeDcpS (C. elegans decapping scavenger enzyme); assay: as above; format: biochemical

T1 sequence (Q96C86 2-337): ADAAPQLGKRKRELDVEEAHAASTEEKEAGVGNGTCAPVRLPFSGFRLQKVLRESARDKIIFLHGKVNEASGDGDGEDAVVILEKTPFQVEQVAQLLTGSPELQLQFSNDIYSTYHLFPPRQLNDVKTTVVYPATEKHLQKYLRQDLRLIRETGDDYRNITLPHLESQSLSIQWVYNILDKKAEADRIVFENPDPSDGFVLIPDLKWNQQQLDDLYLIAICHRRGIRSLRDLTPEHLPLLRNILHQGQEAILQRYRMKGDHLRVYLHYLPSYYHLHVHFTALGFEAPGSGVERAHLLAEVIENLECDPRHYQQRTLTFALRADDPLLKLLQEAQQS

| Structure (SMILES) | Kd [1] | Kd [2] | hDcpS [3] | CeDcpS [4] |
| --- | --- | --- | --- | --- |
| CNc1nc2c(c(=O)[nH]1)[n+](C)cn2[C@@H]1O[C@H](COP(=O)(O)O)[C@@H](O)[C@H]1O [m2m7GMP] | 0.286 µM | 0.136 µM |  |  |
| C[n+]1cn([C@@H]2O[C@H](COP(=O)(O)OP(=O)(O)OP(=O)(O)OC[C@H]3O[C@@H](n4cnc5c(=O)[nH]c(N)nc54)[C@H](O)[C@@H]3O)[C@@H](O)[C@H]2O)c2nc(N)[nH]c(=O)c21 [m7GpppG, P1-(7-methylguanosin-5′-yl)-P3-guanosin-5′-yl triphosphate] |  |  | 4.33 ± 0.23 µM/min | 1.83 ± 0.21 µM/min |
